Here are results for 46 compounds from patent US12673946B2, “Pyrimidin-4(3H)-one derivatives as TRPV4 antagonists” (RaQualia Pharma Inc., priority 2020, dated 2026).

A word on the IC50: it is the point on the concentration scale where inhibition reaches its midpoint. Low readings indicate greater potency in that assay, high ones weaker potency in that assay.

Some results are limits rather than exact numbers.

The assay addresses T1, human TRPV4 (Homo sapiens, UniProt Q9HBA0).
T1 construct: host or cells: tetracycline-inducible Flp-In T-REx 293 cells
Put plainly: Hypotonicity-induced Ca2+ influx (Fluo-4, FDSS). In kind it is cell-based. In short, it runs like this: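 Flp-In T-REx 293 cells with tetracycline-induced human TRPV4, loaded with Fluo-4 for 60 min at 25 °C. Compound added 5 min before hypotonic mannitol/CaCl2 solution. Ca2+ signal recorded for 4.5 min on FDSS.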

Setting [1] is: Flp-In T-REx 293 cells expressing human TRPV4, examples listed under heading 'Human IC50<50 nM'.
The mark [2] stands for this setting: Flp-In T-REx 293 cells stably expressing human TRPV4, compounds listed by potency bin (<10 nM Tables 96-1/96-2, <3 nM Table 97).

T1 sequence (Q9HBA0 whole entry): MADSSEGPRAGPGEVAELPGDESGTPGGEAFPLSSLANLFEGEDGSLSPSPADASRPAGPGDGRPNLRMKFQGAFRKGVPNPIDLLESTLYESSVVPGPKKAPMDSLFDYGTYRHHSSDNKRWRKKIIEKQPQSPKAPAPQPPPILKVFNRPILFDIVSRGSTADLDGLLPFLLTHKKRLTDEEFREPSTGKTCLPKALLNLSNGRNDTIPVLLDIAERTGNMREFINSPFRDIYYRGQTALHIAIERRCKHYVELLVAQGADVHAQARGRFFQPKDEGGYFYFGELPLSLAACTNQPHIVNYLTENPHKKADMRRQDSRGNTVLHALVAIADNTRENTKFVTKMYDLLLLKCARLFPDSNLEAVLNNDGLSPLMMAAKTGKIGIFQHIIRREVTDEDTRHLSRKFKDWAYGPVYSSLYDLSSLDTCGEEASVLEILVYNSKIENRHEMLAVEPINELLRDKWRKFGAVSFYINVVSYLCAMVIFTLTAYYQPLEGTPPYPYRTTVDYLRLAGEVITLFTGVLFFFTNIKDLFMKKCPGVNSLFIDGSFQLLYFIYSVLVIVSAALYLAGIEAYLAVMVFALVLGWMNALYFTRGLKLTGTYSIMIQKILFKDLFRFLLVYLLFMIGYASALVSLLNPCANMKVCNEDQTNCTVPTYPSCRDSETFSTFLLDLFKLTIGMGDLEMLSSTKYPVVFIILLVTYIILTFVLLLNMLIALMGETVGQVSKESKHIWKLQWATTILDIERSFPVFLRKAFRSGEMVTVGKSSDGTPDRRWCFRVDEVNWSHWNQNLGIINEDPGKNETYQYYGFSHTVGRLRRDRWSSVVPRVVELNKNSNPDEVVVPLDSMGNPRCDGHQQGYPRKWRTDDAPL

Take `CC(C)Oc1cccc(-c2cccc([C@@H](O)C(=O)N3CCCc4nc(C5(c6ccccc6)CC5)[nH]c(=O)c4C3)c2)c1` [49-45]: the concentration for half-maximal inhibition (IC50) is less than 50 nM under setting [1] and less than 3 nM under setting [2].
`O=C([C@H](O)c1cccc(-c2coc3ccccc23)c1)N1CCCc2nc(C3(c4ccccc4)CC3)[nH]c(=O)c2C1` [49-46] displayed a concentration for half-maximal inhibition (IC50) under setting [1] of less than 50 nM and an IC50 under setting [2] of less than 3 nM.
With `O=C([C@H](O)c1cccc(-c2cccc(C3CC3)c2)c1)N1CCCc2nc(C3(c4ccccc4)CC3)[nH]c(=O)c2C1` [49-47], the IC50 is, setting by setting: under setting [1], less than 50 nM; under setting [2], less than 10 nM.
As for `Cc1ccc(-c2cccc([C@@H](O)C(=O)N3CCCc4nc(C5(c6ccccc6)CC5)[nH]c(=O)c4C3)c2)cc1C` [49-48], the half-inhibitory concentration (IC50) under setting [1] was less than 50 nM and the half-maximal inhibitory concentration (IC50) under setting [2] was less than 10 nM.
For `Cc1cc(C)cc(-c2cccc([C@@H](O)C(=O)N3CCCc4nc(C5(c6ccccc6)CC5)[nH]c(=O)c4C3)c2)c1` [49-49], the half-inhibitory concentration (IC50) runs as follows: under setting [1], less than 50 nM; under setting [2], less than 10 nM.
Take `CC(C)c1cccc(-c2cccc([C@@H](O)C(=O)N3CCCc4nc(C5(c6ccccc6)CC5)[nH]c(=O)c4C3)c2)c1` [49-50]: the IC50 runs as follows: under setting [1], less than 50 nM; under setting [2], less than 3 nM.
For `Cc1cc(-c2cccc([C@@H](O)C(=O)N3CCCc4nc(C5(c6ccccc6)CC5)[nH]c(=O)c4C3)c2)ccc1Cl` [49-51], the IC50 runs as follows: under setting [1], less than 50 nM; under setting [2], less than 3 nM.
For `O=C([C@H](O)c1cccc(-c2cc(C(F)(F)F)ccc2Cl)c1)N1CCCc2nc(C3(c4ccccc4)CC3)[nH]c(=O)c2C1` [49-52], the 50% inhibitory concentration (IC50) reads like this: under setting [1], less than 50 nM; under setting [2], less than 3 nM.
Take `O=C([C@H](O)c1cccc(-c2cccc(SC(F)(F)F)c2)c1)N1CCCc2nc(C3(c4ccccc4)CC3)[nH]c(=O)c2C1` [49-53]: the IC50 reads like this: under setting [1], less than 50 nM; under setting [2], less than 10 nM.
In turn, `O=C([C@H](O)c1cccc(-c2cccc(C(F)(F)F)c2)c1)N1CCCc2c(nc(C3(c4ccccc4)CC3)[nH]c2=O)C1` [49-54] displayed an IC50 under setting [1] of less than 50 nM and an IC50 under setting [2] of less than 10 nM.
On to `CC(C)(C)c1cccc(-c2cccc([C@@H](O)C(=O)N3CCCc4c(nc(C5(c6ccccc6)CC5)[nH]c4=O)C3)c2)c1` [49-55], for which the IC50 by setting is: under setting [1], less than 50 nM; under setting [2], less than 10 nM.
Take `O=C([C@H](O)c1cccc(-c2cccc(OC(F)(F)F)c2)c1)N1CCCc2c(nc(C3(c4ccccc4)CC3)[nH]c2=O)C1` [49-56]: the half-maximal inhibitory concentration (IC50) is, setting by setting: under setting [1], less than 50 nM; under setting [2], less than 10 nM.
With `CC(C)c1cccc(-c2cccc([C@@H](O)C(=O)N3CCCc4c(nc(C5(c6ccccc6)CC5)[nH]c4=O)C3)c2)c1` [49-57], under setting [1], the IC50 is less than 50 nM.
Consider `O=C([C@H](O)c1cccc(-c2csc3ccccc23)c1)N1CCCc2nc(C3(c4cccc(Cl)c4)CC3)[nH]c(=O)c2C1` [50-1], for which the IC50 was less than 50 nM under setting [1] and less than 10 nM under setting [2].
Consider `O=C([C@H](O)c1cccc(-c2cc3ccccc3s2)c1)N1CCCc2nc(C3(c4cccc(Cl)c4)CC3)[nH]c(=O)c2C1` [50-2], for which the concentration for half-maximal inhibition (IC50) is less than 50 nM under setting [1] and less than 10 nM under setting [2].
On the same counts, the results for `O=C([C@H](O)c1cccc(-c2cccc(OC(F)(F)F)c2)c1)N1CCCc2nc(C3(c4cccc(Cl)c4)CC3)[nH]c(=O)c2C1` [50-3] are less than 50 nM and less than 10 nM.
With `O=C([C@H](O)c1cccc(-c2cccc(C(F)(F)F)c2)c1)N1CCCc2nc(C3(c4cccc(Cl)c4)CC3)[nH]c(=O)c2C1` [50-4], the IC50 under setting [1] was less than 50 nM and the half-inhibitory concentration (IC50) under setting [2] was less than 3 nM.
For `O=C([C@H](O)c1cccc(-c2ccc(Cl)cc2)c1)N1CCCc2nc(C3(c4cccc(Cl)c4)CC3)[nH]c(=O)c2C1` [50-5], in that order: less than 50 nM and less than 3 nM.
Take `O=C([C@H](O)c1cccc(-c2cccc(F)c2)c1)N1CCCc2nc(C3(c4cccc(Cl)c4)CC3)[nH]c(=O)c2C1` [50-6]: the half-maximal inhibitory concentration (IC50) runs as follows: under setting [1], less than 50 nM; under setting [2], less than 3 nM.
With `CC(C)(C)c1cccc(-c2cccc([C@@H](O)C(=O)N3CCCc4nc(C5(c6cccc(Cl)c6)CC5)[nH]c(=O)c4C3)c2)c1` [50-7], the IC50 by setting is: under setting [1], less than 50 nM; under setting [2], less than 10 nM.
For the compound `O=C([C@H](O)c1cccc(-c2coc3ccccc23)c1)N1CCCc2nc(C3(c4cccc(Cl)c4)CC3)[nH]c(=O)c2C1` [50-8], the IC50 was less than 50 nM under setting [1] and less than 3 nM under setting [2].
With `CC(C)c1cccc(-c2cccc([C@@H](O)C(=O)N3CCCc4nc(C5(c6cccc(Cl)c6)CC5)[nH]c(=O)c4C3)c2)c1` [50-9], the IC50 by setting is: under setting [1], less than 50 nM; under setting [2], less than 3 nM.
For `O=C([C@H](O)c1cccc(-c2cccc(C3CC3)c2)c1)N1CCCc2nc(C3(c4cccc(Cl)c4)CC3)[nH]c(=O)c2C1` [50-10], in that order: less than 50 nM and less than 10 nM.
Regarding `O=C([C@H](O)c1cccc(-c2ccnc(C(F)(F)F)c2)c1)N1CCCc2nc(C3(c4cccc(Cl)c4)CC3)[nH]c(=O)c2C1` [50-11], the IC50 by setting is: under setting [1], less than 50 nM; under setting [2], less than 3 nM.
For the compound `O=C([C@H](O)c1cccc(-c2cccc(OCc3ccccc3)c2)c1)N1CCCc2nc(C3(c4cccc(Cl)c4)CC3)[nH]c(=O)c2C1` [50-12], the IC50 by setting is: under setting [1], less than 50 nM; under setting [2], less than 10 nM.
`CC(C)Oc1cccc(-c2cccc([C@@H](O)C(=O)N3CCCc4nc(C5(c6cccc(Cl)c6)CC5)[nH]c(=O)c4C3)c2)c1` [50-13]: the IC50 by setting is: under setting [1], less than 50 nM; under setting [2], less than 10 nM.
On to `O=C([C@H](O)c1cccc(-c2cccc(Cl)c2)c1)N1CCCc2nc(C3(c4cccc(Cl)c4)CC3)[nH]c(=O)c2C1` [50-14], for which the IC50 is, setting by setting: under setting [1], less than 50 nM; under setting [2], less than 10 nM.
For `O=C([C@H](O)c1cccc(-c2ccc3c(c2)OC(F)(F)O3)c1)N1CCCc2nc(C3(c4cccc(Cl)c4)CC3)[nH]c(=O)c2C1` [50-15], in that order: less than 50 nM and less than 3 nM.
`O=C([C@H](O)c1cccc(-c2cc(Cl)cc(OC(F)(F)F)c2)c1)N1CCCc2nc(C3(c4cccc(Cl)c4)CC3)[nH]c(=O)c2C1` [50-16]: the IC50 is less than 50 nM under setting [1] and less than 10 nM under setting [2].
For `O=C([C@H](O)c1cccc(-c2cc(Cl)cc(C(F)(F)F)c2)c1)N1CCCc2nc(C3(c4cccc(Cl)c4)CC3)[nH]c(=O)c2C1` [50-17], the IC50 reads like this: under setting [1], less than 50 nM; under setting [2], less than 10 nM.
Take `O=C([C@H](O)c1cccc(-c2cc(F)cc(Cl)c2)c1)N1CCCc2nc(C3(c4cccc(Cl)c4)CC3)[nH]c(=O)c2C1` [50-18]: the 50% inhibitory concentration (IC50) is less than 50 nM under setting [1] and less than 3 nM under setting [2].
For the compound `Cc1cc(-c2cccc([C@@H](O)C(=O)N3CCCc4nc(C5(c6cccc(Cl)c6)CC5)[nH]c(=O)c4C3)c2)ccc1Cl` [50-19], the half-maximal inhibitory concentration (IC50) runs as follows: under setting [1], less than 50 nM; under setting [2], less than 3 nM.
Take `N#Cc1ccc(-c2cccc([C@@H](O)C(=O)N3CCCc4nc(C5(c6cccc(Cl)c6)CC5)[nH]c(=O)c4C3)c2)cc1` [50-20]: the IC50 is less than 50 nM under setting [1] and less than 3 nM under setting [2].
On to `O=C([C@H](O)c1cccc(-c2ccc(F)c(Cl)c2)c1)N1CCCc2nc(C3(c4cccc(Cl)c4)CC3)[nH]c(=O)c2C1` [50-21], for which the IC50 reads like this: under setting [1], less than 50 nM; under setting [2], less than 10 nM.
In the case of `CC(C)(C)c1ccc(-c2cccc([C@@H](O)C(=O)N3CCCc4nc(C5(c6cccc(Cl)c6)CC5)[nH]c(=O)c4C3)c2)cc1` [50-22], the IC50 was less than 50 nM under setting [1] and less than 10 nM under setting [2].
Regarding `O=C([C@H](O)c1cccc(-c2ccc(Cl)c(C(F)(F)F)c2)c1)N1CCCc2nc(C3(c4cccc(Cl)c4)CC3)[nH]c(=O)c2C1` [50-23], the IC50 by setting is: under setting [1], less than 50 nM; under setting [2], less than 10 nM.
As to `O=C([C@H](O)c1cccc(-c2ccc(C(F)(F)F)cc2)c1)N1CCCc2nc(C3(c4cccc(Cl)c4)CC3)[nH]c(=O)c2C1` [50-24], the half-inhibitory concentration (IC50) runs as follows: under setting [1], less than 50 nM; under setting [2], less than 10 nM.
On the same counts, the results for `N#Cc1cccc(-c2cccc([C@@H](O)C(=O)N3CCCc4nc(C5(c6cccc(Cl)c6)CC5)[nH]c(=O)c4C3)c2)c1` [50-25] are less than 50 nM and less than 3 nM.
As for `O=C([C@H](O)c1cccc(-c2ccc(OC(F)(F)F)cc2)c1)N1CCCc2nc(C3(c4cccc(Cl)c4)CC3)[nH]c(=O)c2C1` [50-26], the 50% inhibitory concentration (IC50) by setting is: under setting [1], less than 50 nM; under setting [2], less than 10 nM.
As for `CC(C)c1cccc(C2(c3nc4c(c(=O)[nH]3)CN(C(=O)C(O)c3cccc(-c5ccnc(C(F)(F)F)c5)c3)CCC4)CC2)c1` (stereo not shown) [51-1], the 50% inhibitory concentration (IC50) by setting is: under setting [1], less than 50 nM; under setting [2], less than 10 nM.
In the case of `CC(C)c1cccc(C2(c3nc4c(c(=O)[nH]3)CN(C(=O)[C@H](O)c3cccc(-c5cccc(C(F)(F)F)c5)c3)CCC4)CC2)c1` [51-2], the IC50 by setting is: under setting [1], less than 50 nM; under setting [2], less than 10 nM.
Consider `CC(C)c1cccc(C2(c3nc4c(c(=O)[nH]3)CN(C(=O)[C@H](O)c3cccc(-c5cccc(OC(F)(F)F)c5)c3)CCC4)CC2)c1` [51-3], for which the half-inhibitory concentration (IC50) reads like this: under setting [1], less than 50 nM; under setting [2], less than 10 nM.
`CC(C)c1cccc(C2(c3nc4c(c(=O)[nH]3)CN(C(=O)[C@H](O)c3cccc(-c5cccc(Cl)c5)c3)CCC4)CC2)c1` [51-4]: the IC50 is less than 50 nM under setting [1] and less than 10 nM under setting [2].
For `CC(C)c1cccc(C2(c3nc4c(c(=O)[nH]3)CN(C(=O)[C@H](O)c3cccc(-c5cccc(C(C)(C)C)c5)c3)CCC4)CC2)c1` [51-5], the IC50 under setting [1] was less than 50 nM and the concentration for half-maximal inhibition (IC50) under setting [2] is less than 10 nM.
On the same counts, the results for `CC(C)c1cccc(C2(c3nc4c(c(=O)[nH]3)CN(C(=O)[C@H](O)c3cccc(-c5ccnc(C(F)(F)F)c5)c3)CCC4)CC2)c1` [51-6] are less than 50 nM and less than 3 nM.
For `CC(C)c1cccc(C2(c3nc4c(c(=O)[nH]3)CN(C(=O)[C@H](O)c3cccc(C5=CCCC5)c3)CCC4)CC2)c1` [51-7], in that order: less than 50 nM and less than 3 nM.
